Test results reported in patent US20040198756A1, “Medicaments” (priority 2001, published 2004).
Structures can show the parent of a compound that is named as a salt.

Test: MIC of test compounds against various organisms
Format: cell-based
Details: bound holds for all 11 organisms of the panel; read-out: MIC versus all these organisms
Experimental: The MIC (jig/ml) of test compounds against various organisms was determined:
S. aureus Oxford, S. aureus WCUH29, S. pneumoniae 1629, S. pneumoniae N1387, S. pneumoniae ERY 2, E. faecalis I, E. faecalis 7, H. influenzae Ql, H. influenzae NEMC1, M. catarrhalis 1502, E. coli 7623.

| Compound | MIC |
| --- | --- |
| COc1ccc2nccc(NC(=O)C3(O)CCN(CC(O)c4ccc5c(c4)NC(=O)CS5)CC3)c2n1 (centres unmarked) [Example 9, 4-Hydroxy-1-[2-R,S-hydroxy-2-(3-oxo-3,4-dihydro-2H-benzo[1,4]thiazin-6-yl)-ethyl]-piperidine-4-carboxylic acid (6-methoxy-[1,5]naphthyridin-4-yl)amide oxalate] | ≤ 4 µg/mL |
| COc1ccc2nccc(NC(=O)C3(N)CCN(CC(O)c4ccc5c(c4)NC(=O)CS5)CC3)c2n1 (centres unmarked) [Example 12, 4-Amino-1-[2-R,S-hydroxy-2-(3-oxo-3,4-dihydro-2H-benzo[1,4]thiazin-6-yl)-ethyl]-piperidine-4-carboxylic acid (6-methoxy-[1,5]naphthyridinyl)-amide dihydrochloride] | ≤ 4 µg/mL |
| COc1ccc2nccc(NC(=O)[C@@]3(O)CCN(CCc4ccc5c(c4)NC(=O)CS5)C[C@@H]3O)c2n1 (racemic) [Example 18, (3S/R,4R/S)-3,4-Dihydroxy-1-[2-(3-oxo-3,4-dihydro-2H-benzo[1,4]thiazin-6-yl)-ethyl]-piperidine-4-carboxylic acid (6-methoxy-[1,5]naphthyridin-4-yl)amide dihydrochloride] | ≤ 4 µg/mL |
| COc1ccc2nccc(NC(=O)C3(O)CCN(CCc4cc5c(cn4)OCCO5)CC3)c2n1 [Example 25, 1-[2-(2,3-Dihydro-[1,4]dioxino[2,3-c]pyridin-7-yl)-ethyl]4-hydroxy-piperidine-4-carboxylic acid(6-methoxy-[1,5]naphthyridin-4-yl)-amide hydrochloride] | ≤ 4 µg/mL |
| COc1ccc2nccc(NC(=O)C3(O)CCN(C[C@H](O)c4ccc5c(n4)NC(=O)CS5)CC3)c2n1 (racemic) [Example 22, 4-Hydroxy-1-[2-(RS)-2-hydroxy-2-(3-oxo-3,4-dihydro-2H-pyrido[3,2-b][1,4]thiazin-6-yl)-ethyl]-piperidine-4-carboxylic acid (6-methoxy-[1,5]naphthyridin-4-yl)amide dihydrochloride] | ≤ 4 µg/mL |
| COc1ccc2nccc(NC(=O)C3(C(N)=O)CCN(C[C@@H](O)c4ccc5c(c4)OCCO5)CC3)c2n1 [Example 21, 1-[2-(2,3-Dihydro-benzo[1,4]dioxin-6-yl)-2-R,S-hydroxy-ethyl]-piperidine-4,4-dicarboxylic acid amide (6-methoxy-[1,5]naphthyridin-4-yl)-amide dihydrochloride] | ≤ 16 µg/mL |
| COc1cc(F)c2nccc(NC(=O)C3(O)CCN(CCc4cc5c(cn4)OCCO5)CC3)c2c1 [Example 26, 1-[2-(2,3-Dihydro-[1,4]dioxino[2,3-c]pyridin-7-yl)-ethyl]-4-hydroxy-piperidine-4-carboxylic acid(8-fluoro-6-methoxy-quinolin-4-yl)-amide hydrochloride] | ≤ 4 µg/mL |
| COc1ccc2nccc(NC(=O)C3(OC)CCN(C[C@H](O)c4ccc5c(n4)NC(=O)CS5)CC3)c2n1 (racemic) [Example 23, 4-Methoxy-1-[2-(RS)-2-hydroxy-2-(3-oxo-3,4-dihydro-2H-pyrido[3,2-b][1,4]-thiazin-6-yl)-ethyl]-piperidine-4-carboxylic acid (6-methoxy-[1,5]naphthyridinyl)amide dihydrochloride] | ≤ 4 µg/mL |
| COc1ccc2nccc(CCC3(O)CCN(CCc4ccc5c(c4)NC(=O)CS5)CC3)c2n1 [Example 28, 6-(2-{4-hydroxy-4-[2-(6-methoxy-[1,5]naphthyridin-4-yl)ethyl]piperidin-1yl}ethyl)-4H-benzo[1,4]thiazin-3-one] | ≤ 4 µg/mL |
| COc1ccc2nccc(N3CCC4(CCN(C[C@H](O)c5ccc6c(c5)NC(=O)CO6)CC4)C3=O)c2n1 [Example 7, 6-{1-R,S-Hydroxy-2-[2-(6-methoxy-[1,5]naphthyridin-4-yl)-1-oxo-2,8-diaza-spiro[4.5]dec-8-yl]-ethyl)4H-benzo[1,4]oxazin-3-one oxalate] | ≤ 16 µg/mL |

Same assay, conditions: bound holds only for some of the 11 organisms of the panel; read-out: MIC versus some of these organisms

| Compound | MIC |
| --- | --- |
| COc1ccc2nccc(NC(=O)[C@@]3(O)CCN(CCc4ccc5c(c4)NC(=O)CS5)C[C@@H]3OC)c2n1 [Example 19, 4-R/S-Hydroxy-3-S/R-methoxy-1-[2-(3-oxo-3,4-dihydro-2H-benzo[1,4]thiazin-6-yl)-ethyl]-piperidine-4-carboxylic acid (6-methoxy-[1,5]naphthyridinyl)-amide dihydrochloride] | ≤ 64 µg/mL |

Same assay, conditions: read-out: MIC versus all these organisms

| Compound | MIC |
| --- | --- |
| COc1ccc2nccc(NC(=O)C3(CO)CCN(CCc4ccc5c(c4)NC(=O)CS5)CC3)c2n1 [Example 10, 4-Hydroxymethyl-1-[2-(3-oxo-3,4-dihydro-2H-benzo[1,4]thiazin-6-yl)-ethyl]-piperidine-4-carboxylic acid (6-methoxy-[1,5]naphthyridin-4-yl)-amide oxalate] | ≤ 4 µg/mL |
| COc1ccc2nccc(NC(=O)C3(O)CCN(CCc4ccc5c(c4)NC(=O)CS5)CC3)c2n1 [Example 5, 4-Hydroxy-1-[2-(3-oxo-3,4-dihydro-2H-benzo[1,4]thiazin-6-yl)-ethyl]-piperidine-4-carboxylic acid (6-methoxy-[1,5]naphthyridin-4-yl)-amide oxalate] | ≤ 64 µg/mL |
| COc1ccc2nccc(NC(=O)C3(O)CCN(CC(O)c4ccc5c(c4)OCCO5)CC3)c2n1 (racemic) [Example 13, 1-[2-(2,3-Dihydro-benzo[1,4]dioxin-6-yl)-2-(R,S)-hydroxy-ethyl]-4-hydroxy-piperidine-4-carboxylic acid (6-methoxy-[1,5]naphthyridin-4-yl)-amide dihydrochloride] | ≤ 16 µg/mL |
| COc1ccc2nccc(NC(=O)C3(C#N)CCN(CCc4ccc5c(c4)NC(=O)CS5)CC3)c2n1.Cl.Cl [Example 20, 4-Cyano-1-[2-(3-oxo-3,4-dihydro-2H-benzo[1,4]thiazin-6-yl)-ethyl]-piperidine-4-carboxylic acid (6-methoxy-[1,5]naphthyridin-4-yl)-amide dihydrochloride] | ≤ 64 µg/mL |
| COc1ccc2nccc(NC(=O)C3(C)CCN(CCc4ccc5c(c4)NC(=O)CS5)CC3)c2n1 [Example 1, 4-Methyl-1-[2-(3-oxo-3,4-dihydro-2H-benzo[1,4]thiazin-6-yl)-ethyl]-piperidine-4-carboxylic acid (6-methoxy-[1,5]naphthyridin-4-yl)amide oxalate] | ≤ 4 µg/mL |
| COc1ccc2nccc(NC(=O)C3(O)CCN(CCc4cc5c(nn4)SCC(=O)N5)CC3)c2n1 [Example 14, 4-Hydroxy-1-[2-(6-oxo-6,7-dihydro-5H-pyridazino[3,4-b][1,4]thiazin-3-yl)-ethyl]-piperidine-4-carboxylic acid (6-methoxy-[1,5]naphthyridin-4-yl)-amide dihydrochloride] | ≤ 4 µg/mL |
| COc1ccc2nccc(NC(=O)C3(N)CCN(CCc4ccc5c(c4)NC(=O)CS5)CC3)c2n1 [Example 2, 4-Amino-1-[2-(3-oxo-3,4-dihydro-2H-benzo[1,4]thiazin-6-yl)-ethyl]-piperidine-4-carboxylic acid (6-methoxy-[1,5]naphthyridin-4-yl)amide dioxalate] | ≤ 4 µg/mL |
| COc1ccc2nccc(NC(=O)C3(O)CCN(CC(=O)c4ccc5c(c4)NC(=O)CS5)CC3)c2n1 [Example 8, 4-Hydroxy-1-[2-oxo-2-(3-oxo-3,4-dihydro-2H-benzo[1,4]thiazin-6-yl)-ethyl]-piperidine-4-carboxylic acid (6-methoxy-[1,5]naphthyridin-4-yl)-amide oxalate] | ≤ 64 µg/mL |
| COc1ccc2nccc(NC(=O)C3(O)CCN(CCc4ccc5c(c4)OCO5)CC3)c2n1 [Example 3, 1-(2-Benzo[1,3]dioxol-5-yl-ethyl)-4-hydroxy-piperidine-4-carboxylic acid (6-methoxy-[1,5]naphthyridin-4yl)amide oxalate] | ≤ 16 µg/mL |
